Laboratory results: US20080166323A1, “Activators of Hexosamine Biosynthesis as Inhibitors of Injury Induced by Ischemia or Hermorrhagic Shock” (UAB RESEARCH FOUNDATION, priority 2004, published 2008)
Structures can show the parent of a compound that is named as a salt.

Tests used:
perfused hearts = test: calcium paradox in perfused hearts (Langendorff); design: species or system rat
Description: The effect of short-term hyperglycemia (2-5 days) on the calcium paradox was explored. The protocol (a 30-minute stabilization after hanging the heart on a Langendorff apparatus, a Ca^2+-free buffer for 10 min, a buffer containing 1.25 mM Ca^2+ buffer for 15 min) was initially applied to perfused hearts from control rats. When calcium was removed from the perfusate, the heart gradually ceased beating (FIG. 2A), although no protein loss from the heart was detected (FIG. 3C). […] The decrease in left ventricular […] pressure (LVDP) and an elevation in end diastolic pressure (EDP), as well as protein loss and blanching signaled the transition to a “stone heart” (Zimmerman, Cardiovasc Res (2000) 45(1):119-121) in hearts from all control animals examined.
Azaserine (AZA), the inhibitor of GFAT and HBP flux (Marshall, et al., J Biol Chem (1991) 266(8):4706-4712), negated the effects of hyperglycemia, restoring sensitivity to the paradox in 3 of 7 hearts (FIG. 2B). […] This decreased somewhat the protection seen with hyperglycemia, but made the reversal seen with azaserine more pronounced (FIGS. 2B and 3).
To confirm the involvement of the HBP in the protection due to hyperglycemia, a complementary series of experiments at a final Ca^2+ concentration of 1.25 mM were performed.
An independent mechanism of increasing metabolites in the HBP is to provide the heart with free fatty acids (Hawkins, et al., J Clin Invest (1997) 99(9):2173-2182). This occurs because of the “glucose-sparing” effect, a rapid block on the entry of glucose into the glycolytic pathway because of an inhibition of phosphofructokinase. […] In addition, SKF96365 (also known as 1-[β-[3-(4-methoxyphenyl)propoxy]-4-methoxyphenethyl]-1H-imidazole, HCl; available from Calbiochem, San Diego, Calif.) as an independent means of blocking the channels responsible for CCE was utilized (Putney, Capacitative Calcium Entry (1997) Austin: Landes Biomedical). This too was at least partially effective in 4 of 6 animals (FIG. 4).

[1] = system: animal models of ischemia/reperfusion; conditions: in vivo; cited from earlier work
hemorrhagic shock = conditions: in vivo; cited from earlier work
human = conditions: in vivo; cited from earlier work
isolated rat heart = conditions: administered prior to ischemia or just prior to reperfusion; cited from earlier work
isolated cardiomyocyte = conditions: cited from earlier work

## COc1ccc(CCCOC(Cn2ccnc2)c2ccc(OC)cc2)cc1 (stereo not drawn) [SKF96365, 1-[β-[3-(4-methoxyphenyl)propoxy]-4-methoxyphenethyl]-1H-imidazole, HCl]
Perfused hearts; final Ca2+ 1.25 mM
  animals in which treatment was at least partially effective in the calcium paradox: 4 of 6

## [N-]=[N+]=CC(=O)OC[C@H](N)C(=O)O [Azaserine]
Perfused hearts; hearts from STZ hyperglycemic animals treated with azaserine
  hearts in which sensitivity to the calcium paradox was restored (effects of hyperglycemia negated): 3 of 7

## O=C(COP(=O)(O)O)[C@@H](O)[C@H](O)[C@H](O)COP(=O)(O)O [FBP, fructose-1,6-bisphosphate]
[1]
  protection in animal models of ischemia/reperfusion: protective
Hemorrhagic shock
  protection in hemorrhagic shock: protective
human
  outcomes in human studies: improved outcomes

## NC(=O)CC[C@H](N)C(=O)O [glutamine]
Isolated rat heart
  protection in cardiac ischemia: remarkable protection
Isolated cardiomyocyte
  protection in isolated cardiomyocyte model: protective

## CN(N=O)C(=O)N[C@H]1C(O)O[C@H](CO)[C@@H](O)[C@@H]1O (mixture of isomers) [streptozotocin]
Perfused hearts; hearts from animals made hyperglycemic by STZ treatment (2-5 days), 10 min Ca2+-free, 1.25 mM Ca2+ readdition
  hearts demonstrating almost complete protection in the calcium paradox: 7 of 7
